In brackets after ≈: the same amount, converted by molar mass. Like-named read-outs stand apart in the source and are kept apart here.
Legend:
[1] = test system: E. coli K-12 nalidixic acid-resistant mutants, Nal1-8; test: MIC determination to nalidixic acid, resistant mutants; assay type: cell-based; conditions: Escherichia coli
Experimental: Table 3 recites E. coli K-12 nalidixic acid-resistant mutants, Nal1-8, isolated on 50 μg/ml nalidixic acid. Substitutions in the GyrA protein are indicated, as well as the MIC to nalidixic acid.
(§1) Over twenty different overnight cultures of a total of ˜10^11 E. coli K-12 cells were inoculated on Luria-Bertani (LB)-agar plates containing 50 μg/ml streptomycin or 50 μg/ml nalidixic acid. Resistant mutants emerged, in both cases, at a median frequency of ˜1 in 10^9 CFU, and were picked from different cultures, to reduce the occurrence of sibling mutants. These bacteria were streaked on an agar plate containing the appropriate antibiotic. The rpsL or gyrA genes of resistant mutants emerging on the plate were PCR-amplified followed by DNA sequencing.
(§2) MIC determination was carried out by following the procedure described by Wiegand et al. (19). Briefly, bacterial cells were grown overnight at 32° C. in LB and diluted to 10^7-10^9 CFU/ml. The obtained suspension was serially diluted 10-fold for different spot concentrations, as indicated. Approximately 1 μl of bacterial suspension was then spotted onto selection plates containing different concentrations of either streptomycin or nalidixic acid along with the appropriate selection agent (chloramphenicol or tellurite), as indicated, using a 48-pin replicator. Plates were incubated overnight and photographed using MiniBis Pro (Bio-Imaging Systems). Photographs were digitally manipulated using GIMP2 software to adjust contrast. Liquid-based MIC determination assays were carried out by inoculating serial dilutions of an antibiotic in liquid LB broth with bacterial cultures (OD600 ˜0.05) in 96-well microtiter plates. Plates were incubated overnight at 32° C. and OD600 was then measured. The lowest antibiotic concentration at which the relative growth compared to the “no-drug” control was below 10% was determined as the MIC.

[2] = test system: pathogenic E. coli; conditions: 36 pathogenic E. coli resistant to high levels of nalidixic acid; cited from earlier work
[3] = test system: E. coli K-12 parental strain; test: MIC to streptomycin of the parental strain; assay type: cell-based; conditions: Escherichia coli
Experimental: MIC determination was carried out by following the procedure described by Wiegand et al. (19). Briefly, bacterial cells were grown overnight at 32° C. in LB and diluted to 10^7-10^9 CFU/ml. The obtained suspension was serially diluted 10-fold for different spot concentrations, as indicated. Approximately 1 μl of bacterial suspension was then spotted onto selection plates containing different concentrations of either streptomycin or nalidixic acid along with the appropriate selection agent (chloramphenicol or tellurite), as indicated, using a 48-pin replicator. Plates were incubated overnight and photographed using MiniBis Pro (Bio-Imaging Systems). […] Plates were incubated overnight at 32° C. and OD600 was then measured. […]
Minimum inhibitory concentration (MICs) to streptomycin were determined by agar-plate assay (19). […] The MICs throughout the study were also measured in a complementary liquid-determination assay, giving a similar readout (not shown). […] These strains were transformed with the plasmid pRpsL-wt, encoding the wt rpsL, or a control plasmid, pRpsLΔ4, encoding a mock gene (a defective rpsL with a 4-bp deletion that disrupts the reading frame after amino acid 26 of the RpsL protein; see FIG. 1) under a modified early E. coli promoter from phage T7. […] The MICs of the transformed strains to streptomycin were then determined.

[4] = test system: E. coli K-12 streptomycin-resistant mutants, Sm1-22; test: MIC determination to streptomycin, agar-plate assay, resistant mutants; assay type: cell-based; conditions: Escherichia coli
Experimental: Table 2 recites the E. coli K-12 streptomycin-resistant mutants, Sm1-22, isolated on 50 μg/ml streptomycin. Substitutions in the RpsL protein are indicated, as well as the MIC to streptomycin.
as §1, §2
Minimum inhibitory concentration (MICs) to streptomycin were determined by agar-plate assay (19). In this assay, ˜10^4 cells are replica-plated on plates with different drug concentrations. The lowest concentration at which there is no visible colony-formation is defined as the MIC. The MICs throughout the study were also measured in a complementary liquid-determination assay, giving a similar readout (not shown). Two representatives of the most common streptomycin-resistant strains obtained above were taken for further study: strains Sm6 and Sm13, harboring mutations in rpsL leading to substitutions of R86S and K88R, respectively. […] These strains were transformed with the plasmid pRpsL-wt, encoding the wt rpsL, or a control plasmid, pRpsLΔ4, encoding a mock gene (a defective rpsL with a 4-bp deletion that disrupts the reading frame after amino acid 26 of the RpsL protein; see FIG. 1) under a modified early E. coli promoter from phage T7. Transformed cells were selected on agar plates supplemented with 35 μg/ml chloramphenicol, as the plasmid encodes chloramphenicol acetyl transferase, which confers chloramphenicol resistance. The MICs of the transformed strains to streptomycin were then determined.

[5] = test system: E. coli; conditions: cited from earlier work

Compound: CCn1cc(C(=O)O)c(=O)c2ccc(C)nc21 [nalidixic acid]
- MIC ([1]; read-out: MIC to nalidixic acid, mutant Nal1, GyrA S83L): ≥ 50 µg/mL
- MIC ([1]; read-out: MIC to nalidixic acid, mutant Nal2, GyrA S83L): ≥ 50 µg/mL
- MIC ([1]; read-out: MIC to nalidixic acid, mutant Nal3, GyrA S83L): ≥ 50 µg/mL
- MIC ([1]; read-out: MIC to nalidixic acid, mutant Nal4, GyrA D87G): 128 µg/mL (≈ 551 µM)
- MIC ([1]; read-out: MIC to nalidixic acid, mutant Nal5, GyrA D87G): 128 µg/mL (≈ 551 µM)
- MIC ([1]; read-out: MIC to nalidixic acid, mutant Nal6, GyrA D87G): 128 µg/mL (≈ 551 µM)
- MIC ([1]; read-out: MIC to nalidixic acid, mutant Nal7, GyrA D87G): 128 µg/mL (≈ 551 µM)
- MIC ([1]; read-out: MIC to nalidixic acid, mutant Nal8, GyrA D87G): 128 µg/mL (≈ 551 µM)
- MIC of nalidixic acid [2]: ≥ 256 µg/mL

Compound: [H]/N=C(/N)N[C@H]1[C@H](O)[C@@H](O)[C@H](O[C@@H]2O[C@@H](C)[C@](O)(C=O)[C@H]2O[C@@H]2O[C@@H](CO)[C@H](O)[C@@H](O)[C@@H]2NC)[C@@H](N/C(N)=N\[H])[C@@H]1O [streptomycin]
- MIC [3]: 1.56 µg/mL (≈ 2.68 µM)
- MIC ([4]; read-out: MIC to streptomycin, mutant Sm1, RpsL P42S): ≥ 50000 µg/mL
- MIC ([4]; read-out: MIC to streptomycin, mutant Sm3, RpsL K43N): ≥ 50000 µg/mL
- MIC ([4]; read-out: MIC to streptomycin, mutant Sm4, RpsL R54S): ≥ 50000 µg/mL
- MIC ([4]; read-out: MIC to streptomycin, mutant Sm5, RpsL R86S): ≥ 50000 µg/mL
- MIC ([4]; read-out: MIC to streptomycin, mutant Sm6, RpsL R86S): 100000 µg/mL (≈ 172000 µM)
- MIC ([4]; read-out: MIC to streptomycin, mutant Sm7, RpsL R86S): ≥ 50000 µg/mL
- MIC ([4]; read-out: MIC to streptomycin, mutant Sm8, RpsL R86S): ≥ 50000 µg/mL
- MIC ([4]; read-out: MIC to streptomycin, mutant Sm9, RpsL R86S): ≥ 50000 µg/mL
- MIC ([4]; read-out: MIC to streptomycin, mutant Sm10, RpsL R86S): ≥ 50000 µg/mL
- MIC ([4]; read-out: MIC to streptomycin, mutant Sm11, RpsL K88E): ≥ 50000 µg/mL
- MIC ([4]; read-out: MIC to streptomycin, mutant Sm22, no substitution in RpsL): ≥ 50000 µg/mL
- MIC ([4]; read-out: MIC to streptomycin, resistant mutant Sm6 (R86S) without sensitizing construct): 100 µg/mL
- MIC ([4]; read-out: MIC to streptomycin, resistant mutant Sm13 (K88R) without sensitizing construct): 200 µg/mL

Compound: O=[Te]([O-])[O-].[K+].[K+] [tellurite, potassium-tellurite (K2TeO3)]
- MIC of tellurite ([5]; E. coli either having or lacking the chromosomal tehAB genes): 2 µg/mL
- MIC of tellurite ([5]; cells harboring an extrachromosomal tehAB with an active promoter): 128 µg/mL
- Increase of MIC of tellurite upon tehAB expression from an active promoter ([5]; tehAB expressed from an active promoter (e.g. T7)): 50-100 fold

From patent US8865158B2, “Bacteriophages for reducing toxicity of bacteria” (priority 2012, dated 2014)
